Molecular target: T1, human A1 adenosine receptors (Homo sapiens, UniProt P30542)
T1 construct: expressed in transfected cells; host or cells: CHO cells (hCHO-A1 clone)
T1 sequence (P30542 1-326): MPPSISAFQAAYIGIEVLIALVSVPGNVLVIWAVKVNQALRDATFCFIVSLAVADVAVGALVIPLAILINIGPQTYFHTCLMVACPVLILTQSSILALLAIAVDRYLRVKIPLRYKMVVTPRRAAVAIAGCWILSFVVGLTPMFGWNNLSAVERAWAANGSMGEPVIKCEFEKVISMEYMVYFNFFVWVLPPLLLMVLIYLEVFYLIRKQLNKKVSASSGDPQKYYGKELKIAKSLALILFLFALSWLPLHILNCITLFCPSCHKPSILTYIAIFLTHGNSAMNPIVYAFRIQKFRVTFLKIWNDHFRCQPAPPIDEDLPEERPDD
Assay: Saturation binding of [3H]CCPA to hCHO-A1
Description: The hCHO-A1, hCHO-A2A and hCHO-A3 cell clones are grown adherently and maintained in Dulbecco's modified Eagle's medium with nutrient mixture F12, containing 10% fetal calf serum, penicillin (100 U/mL), streptomycin (100 μg/mL), L-glutamine (2 mM), geneticine (G418, 0.2 mg/mL) at 37° C. in 5% CO2/95% air (Klotz et al. Naunyn-Schmied. Arch Pharm. 1998, 357, 1-9). Cells are split two or three times weekly at a ratio of between 1:5 and 1:10. For membrane preparation the culture medium is removed. The cells are washed with PBS and scraped off T75 flasks in ice-cold hypotonic buffer (5 mM Tris HCl, 2 mM EDTA, pH 7.4). The cell suspension is homogenized with Polytron and the homogenate is spun for 10 min at 1,000×g. […] The protein concentration is determined according to a Bio-Rad method (Bradford, 1976) with bovine albumin as a standard reference.
To determine the effect of the compounds of the present invention on the binding to A1, A2A and A3 receptors, membranes from hCHO-A1, hCHO-A2A, hCHO-A3 are incubated in a buffer solution in the absence and in the presence of the examined compounds. […] Bound and free radioactivity are separated by filtering the assay mixture through Whatman GF/B glass fibre filters using a Micro-mate 196 cell harvester (Packard Instrument Company). The filter bound radioactivity was counted on Top Count Microplate Scintillation Counter (efficacy […]) with Micro 20. […]

increase in the BMAX value of the agonist [3H]CCPA: about 6 fold
Compound: Nc1scc(CN2CCC3(CC2)Oc2cccc(F)c2O3)c1C(=O)c1ccc(Cl)cc1 [Example 60, {2-Amino-4-(4-fluorospiro[benzo[d][1,3]-dioxole-2,4′-piperidine]-1′-ylmethyl)thiophen-3-yl}(4-chlorophenyl)methanone]

Reference: US7897596B2, “Allosteric modulators of the A1 adenosine receptor” (King Pharmaceuticals Research & Development, Inc., priority 2006, dated 2011)
